Reference: PubChem BioAssay AID1053170 (The Scripps Research Institute Molecular Screening Center, 2014)
Calls of active or inactive are those of the source. The rule behind the calls is not given here.

What follows are compounds tested against E3 ubiquitin-protein ligase UHRF1 (Homo sapiens) (UniProt Q96T88) (assay: blockers of UHRF1 binding to methyl-oligo – biochemical, TR-FRET, human UHRF1, dose response, counter-screen for MBD2 inhibitor project, late-stage follow-up (AID 1053170)). Settings: TR-FRET UHRF1-methylated DNA binding.
Chain of E3 ubiquitin-protein ligase UHRF1 (Homo sapiens) (Q96T88 whole entry, looked up): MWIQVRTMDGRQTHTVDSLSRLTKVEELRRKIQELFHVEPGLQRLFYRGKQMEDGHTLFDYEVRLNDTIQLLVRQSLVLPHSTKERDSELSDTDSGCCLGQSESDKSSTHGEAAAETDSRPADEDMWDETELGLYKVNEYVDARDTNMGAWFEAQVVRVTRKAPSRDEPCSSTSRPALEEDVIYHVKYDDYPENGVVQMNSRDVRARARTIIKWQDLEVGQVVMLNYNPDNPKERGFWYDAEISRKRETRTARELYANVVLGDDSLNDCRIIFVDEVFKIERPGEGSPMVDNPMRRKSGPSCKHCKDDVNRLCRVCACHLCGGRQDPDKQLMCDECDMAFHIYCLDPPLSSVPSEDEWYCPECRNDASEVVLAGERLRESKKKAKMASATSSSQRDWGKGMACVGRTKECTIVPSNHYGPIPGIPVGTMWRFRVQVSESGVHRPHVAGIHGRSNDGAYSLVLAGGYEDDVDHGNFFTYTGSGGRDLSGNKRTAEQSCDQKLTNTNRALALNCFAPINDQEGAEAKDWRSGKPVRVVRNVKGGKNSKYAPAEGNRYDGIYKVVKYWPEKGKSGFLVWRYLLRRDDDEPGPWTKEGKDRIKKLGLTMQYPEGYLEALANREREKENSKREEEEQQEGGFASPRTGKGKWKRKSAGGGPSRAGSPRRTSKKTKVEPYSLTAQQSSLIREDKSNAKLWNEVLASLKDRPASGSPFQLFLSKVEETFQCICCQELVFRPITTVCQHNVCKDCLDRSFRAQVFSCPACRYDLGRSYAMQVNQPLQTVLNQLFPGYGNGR

Compound	IC50
Cc1ccc(NCCN(C)C)c2c(=O)c3cc(O)ccc3sc12	inactive
Cc1cc(C)n2nc(CC(=O)NCc3ccc(F)cc3)nc2n1	> 43.8 µM (inactive)
N=C1C(c2nc3ccccc3s2)=C(O)CN1NC(=O)c1c[nH]c2ccccc12	> 43.8 µM (inactive)
CCOC(=O)c1oc2ccc(CNC(C)(C)C)c(Cl)c2c1C	> 43.8 µM (inactive)
COc1ccc(C(=O)N2CCC(C(=O)Nc3ccc(C)cc3)CC2)cc1	> 43.8 µM (inactive)
CCc1cccc(OCC(=O)Nc2ccc(S(=O)(=O)Nc3ccccn3)cc2)c1	> 43.8 µM (inactive)
COc1cccc2nc3c(C(=O)NCCN(C)C)cccc3cc12	> 43.8 µM (inactive)
COc1ccc(NC(=O)COC(=O)CCc2ccc(S(=O)(=O)N3CCOCC3)cc2)cc1Cl	> 43.8 µM (inactive)
CCOC(=O)c1ccc(NC(=O)COc2ccc(CNCCO)cc2OCC)cc1	> 43.8 µM (inactive)
CC(=O)N(c1ccccc1)c1nc(/C=C/C(=O)Nc2c(C)cc(C)cc2C)cs1	> 43.8 µM (inactive)
CCOc1ccc(S(=O)(=O)N2CCCC(C(=O)NCC3CCCO3)C2)cc1Cl (configuration not stated)	> 43.8 µM (inactive)
COc1ccc(NC(=O)Cn2cc(C(C)=O)c3ccccc32)cc1	> 43.8 µM (inactive)
CSc1ccc(OC2CCCCC2NS(=O)(=O)c2ccc(Cl)cc2)cc1 (configuration not stated)	> 43.8 µM (inactive)
O=C(CSc1ccccn1)Nc1ccc(N2CCOCC2)cc1	> 43.8 µM (inactive)
Cc1ccc(Cl)cc1N1CCN(S(=O)(=O)c2ccc3c(c2)NC(=O)C(C)C(=O)N3)CC1 (configuration not stated)	> 43.8 µM (inactive)
O=C(CSc1nc(-c2ccccc2)c(-c2ccccc2)o1)N1CCOCC1	> 43.8 µM (inactive)

Compound	IC50
CCCCn1c(NC(C)CC)nc2c1c(=O)[nH]c(=O)n2C (configuration not stated)	> 43.8 µM (inactive)
c1ccc2c(c1)C1=NCCN1c1ccccc1-2	inactive
Cc1cc2[nH]c3c4ccccc4nc(C)c3c2cc1C	inactive
CC(C)n1nc(C(=O)Nc2nc3ccccc3[nH]2)c2ccccc2c1=O	> 43.8 µM (inactive)
CSc1ccc(OC2CCCCC2NS(=O)(=O)c2ccccc2)cc1 (configuration not stated)	> 43.8 µM (inactive)
O=C(Nc1ccc(OCc2ccccc2)cc1)c1ccccc1	> 43.8 µM (inactive)
Clc1ccc2c(c1)-c1ccccc1C1=NCCN12	inactive
Cc1c2cnn(CC(=O)Nc3c(F)c(F)cc(F)c3F)c(=O)c2c(C)n1Cc1ccccc1F	inactive
COc1ccc(C(=O)NCCN(C)C)c2nc3ccccc3cc12	inactive
COc1ccc(NC(=O)CN2CCN(c3ccccc3C)CC2)cc1	> 43.8 µM (inactive)
CC(C)C(=O)Nc1nnc(SCC(=O)NC2CCCC2)s1	> 43.8 µM (inactive)
COc1ccccc1C(=O)COC(=O)c1ccc(N(C)C)cc1	> 43.8 µM (inactive)
CCOC(=O)c1cnc2c(ccc3ccccc32)c1NCCCN(C)C	inactive
COc1ccc2c(=O)c3c(=O)n(-c4ccccc4)c(-c4ccc(C)cc4)nc3oc2c1	> 43.8 µM (inactive)
CN(C)CCNC(=O)c1cccc2[nH]c(-c3ccncc3)nc12	inactive
CN(C)CCNc1ccc(CO)c2sc3ccc(O)cc3c(=O)c12	> 43.8 µM (inactive)
